Measured values taken from patent EP4722209A1 (Beijing Shenogen Pharma Group, priority 2023, dated 2024).

The molecules below were run against T1, ERα (Homo sapiens, UniProt P03372) (assay: ER degradation activity in MCF-7 cells (Western blot, grayscale intensity)). Settings: 6 hours treatment, 1 nM to 100 nM, concentration required to degrade 50% of the target protein.
T1 construct: host or cells: MCF-7
T1 sequence (P03372 1-595): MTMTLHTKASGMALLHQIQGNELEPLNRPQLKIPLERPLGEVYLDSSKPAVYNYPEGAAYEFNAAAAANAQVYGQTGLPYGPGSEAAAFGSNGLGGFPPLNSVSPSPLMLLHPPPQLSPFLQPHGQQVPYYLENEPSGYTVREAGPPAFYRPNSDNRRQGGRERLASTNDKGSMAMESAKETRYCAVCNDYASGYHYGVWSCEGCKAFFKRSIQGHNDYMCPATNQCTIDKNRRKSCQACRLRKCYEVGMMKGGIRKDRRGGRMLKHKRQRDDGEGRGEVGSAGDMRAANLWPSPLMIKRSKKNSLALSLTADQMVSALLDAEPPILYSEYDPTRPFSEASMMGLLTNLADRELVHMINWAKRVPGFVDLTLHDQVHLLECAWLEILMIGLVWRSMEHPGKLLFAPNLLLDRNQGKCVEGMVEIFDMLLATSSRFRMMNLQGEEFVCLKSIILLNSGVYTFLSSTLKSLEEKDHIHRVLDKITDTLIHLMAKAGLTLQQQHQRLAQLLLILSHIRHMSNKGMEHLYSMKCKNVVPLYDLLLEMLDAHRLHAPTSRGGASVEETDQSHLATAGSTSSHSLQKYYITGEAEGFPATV
Assay type: cell-based
Description: ERα-positive human breast cancer cells MCF-7 (ATCC, HTB-22) were cultured with EMEM medium (ATCC, catalog number 30-2003) containing 10% fetal bovine serum (Thermo Fisher, catalog number 10099141) and 10 µg/mL bovine insulin in 25 cm^2 or 75 cm^2 plastic tissue culture flasks in a 37 °C incubator with 5% CO2. The cells were passaged 2 to 3 times per week. MCF-7 cells were seeded in 6-well plate at 1×10^6 cells/well with 1.8 mL culture medium per well, and cultured in a 37 °C incubator with 95% air and 5% CO2. After 24 hours, the test compounds were added: the compounds were serially diluted 10-fold in DMSO starting from 10 mM (dissolved in DMSO) to prepare gradient stock solutions. A complete culture medium containing 1% DMSO was prepared for further dilution, temporarily named as the "dilution buffer." Working solutions were prepared by diluting each stock solution with 99 times the volume of dilution buffer, that is, by adding 1 µL of the 10 mM stock solution to 99 µL of the dilution buffer and mixing thoroughly.
Finally, […] of the working solution was added to the cell-seeded culture plate. The final concentration of DMSO in the cell culture medium was 0.2%, and the final concentration of the test compounds ranged from 1 nM to 100 nM. The cells were then incubated at 37 °C for 6 hours.
The culture medium was removed, and the cells were washed twice with ice cold PBS. 1 mL of PBS was added to each well, and the cells were collected into EP tubes using a cell scraper, and centrifuged at 4 °C, 4000 rpm for 5 minutes. PBS was aspirated. Total protein was extracted using the Minute™ Mammalian Tissue/Cell Total Protein Extraction Reagent. The protein concentration was measured using the BCA protein assay kit. 30 µg of protein was taken and mixed with 5× SDS-PAGE loading buffer, boiled for 10 minutes, and cooled. The samples were loaded into wells of a precast gel, with constant voltage at 80 V for 30 minutes, and then the voltage was changed to 120 V after the samples entered the resolving gel. The "sandwich" (sponge - filter paper - gel - membrane - filter paper - sponge) was assembled for Bio-Rad's Transblot. Transfer was performed for 1 hour at 0.3 amp at 4 °C. The sample was blocked with 5% fat-free milk for 1 hour, and incubated with Estrogen Receptor alpha Antibody (Thermo Fisher, catalog number MA5-14104) overnight at 4 °C. The membrane was washed with TBST to remove non-specifically bound antibodies, and then incubated with goat anti-mouse IgG-HRP secondary antibody for 1 hour at room temperature, and was visualized using ECL. The protein degradation level was calculated by measuring the grayscale intensity.
The DC50 values (i.e., the concentration of the test compounds required to degrade 50% of the target protein) were calculated and shown in Table 1. A corresponds to a DC50 value below 10 nM, B corresponds to a DC50 value greater than 10 nM and less than 100 nM, and C corresponds to DC50 values greater than 100 nM. Table 1. The DC50 values of exemplary compounds in MCF-7 cells

| Structure (SMILES) | DC50 |
| --- | --- |
| CC1(C)CC(=C(c2ccc(N3CCC(CN4CCN(c5ccc(F)c(NC6CCC(=O)NC6=O)c5)CC4)CC3)nc2)c2ccc3[nH]nc(F)c3c2)CC(C)(C)O1 (stereo not shown) [Compound 83] | < 10 nM |
| Cn1nc(N2CCC(=O)NC2=O)c2ccc(C3CCN(CC(=O)N4CC5(C4)CN(c4ccc(C(=C6CC(C)(C)OC(C)(C)C6)c6ccc7[nH]nc(F)c7c6)cn4)C5)CC3(F)F)cc21 (stereo not shown) [Compound 94] | > 100 nM |
| CC1(C)CC(=C(c2ccc(N3CCC(CN4CCN(c5cccc(NC6CCC(=O)NC6=O)c5)CC4)CC3)cc2)c2ccc3[nH]nc(F)c3c2)CC(C)(C)O1 (stereo not shown) [Compound 107] | > 100 nM |
| CC1(C)CC(=C(c2ccc(OC3CN(C4CCN(c5ccc6c(c5)C(=O)N(C5CCC(=O)NC5=O)C6=O)CC4)C3)cc2)c2ccc3[nH]nc(F)c3c2)CC(C)(C)O1 (stereo not shown) [Compound 20] | > 100 nM |
| CC1(C)CC(=C(c2ccc(N3CC4(CCC(N5CCN(c6ccc7c(c6)CN(C6CCC(=O)NC6=O)C7=O)CC5)CC4)C3)nc2)c2ccc3[nH]nc(F)c3c2)CC(C)(C)O1 (stereo not shown) [Compound 109] | < 10 nM |
| CC1(C)CC(=C(c2ccc3[nH]nc(F)c3c2)c2c(F)cc(OC3CN(CC4CCN(c5ccc6c(c5)C(=O)N(C5CCC(=O)NC5=O)C6=O)CC4)C3)cc2F)CC(C)(C)O1 (stereo not shown) [Compound 24] | 10 to 100 nM |
| CC1(C)CC(=C(c2ccc(OC3CN(CC4CCN(c5ccc6c(c5)C(=O)N(C5CCC(=O)NC5=O)C6=O)CC4)C3)nc2)c2ccc3[nH]nc(F)c3c2)CC(C)(C)O1 (stereo not shown) [Compound 7] | 10 to 100 nM |
| CC1(C)CC(=C(c2ccc3[nH]nc(F)c3c2)c2c(F)cc(N3CCN(C4CCN(c5ccc6c(c5)C(=O)N(C5CCC(=O)NC5=O)C6=O)CC4)CC3)cc2F)CC(C)(C)O1 (stereo not shown) [Compound 10] | > 100 nM |
| CC1(C)CC(=C(c2ccc(N3CCN(CC4CN(c5ccc6c(c5)C(=O)N(C5CCC(=O)NC5=O)C6=O)C4)CC3)cc2)c2ccc3[nH]nc(F)c3c2)CC(C)(C)O1 (stereo not shown) [Compound 1] | > 100 nM |
| CC1(C)CC(=C(c2ccc(N3CCC4(CC3)CN(C3CCN(c5ccc6c(c5)CN([C@H]5CCC(=O)NC5=O)C6=O)CC3)C4)nc2)c2ccc3[nH]nc(F)c3c2)CC(C)(C)O1 [Compound 141] | < 10 nM |
| CC1(C)CC(=C(c2ccc(N)nc2)c2ccc(N3CCC(CN4CCN(c5ccc6c(c5)CN(C5CCC(=O)NC5=O)C6=O)CC4)CC3)nc2)CC(C)(C)O1 (stereo not shown) [Compound 116] | > 100 nM |
| CC1(C)CC(=C(c2ccc(N3CC4C(CN5CCN(c6ccc7c(c6)CN(C6CCC(=O)NC6=O)C7=O)CC5)C4C3)nc2)c2ccc3[nH]nc(F)c3c2)CC(C)(C)O1 (stereo not shown) [Compound 51] | > 100 nM |
| CC1(C)CC(=C(c2ccc(N3CCC(CN4CCN(c5ccc6c(c5)CN(C5CCC(=O)NC5=O)C6=O)CC4)CC3)nc2)c2ccc3cncn3c2)CC(C)(C)O1 (stereo not shown) [Compound 113] | > 100 nM |
| CC1(C)CC(=C(c2ccc(OC3CN(C4CN(c5ccc6c(c5)C(=O)N(C5CCC(=O)NC5=O)C6=O)C4)C3)nc2)c2ccc3[nH]nc(F)c3c2)CC(C)(C)O1 (stereo not shown) [Compound 19] | > 100 nM |
| CC1(C)CC(=C(c2ccc(OC3CN(CC4CN(c5ccc6c(c5)C(=O)N(C5CCC(=O)NC5=O)C6=O)C4)C3)cc2)c2ccc3[nH]nc(F)c3c2)CC(C)(C)O1 (stereo not shown) [Compound 32] | > 100 nM |
| CC1(C)CC(=C(c2ccc3[nH]nc(F)c3c2)c2c(F)cc(N3CCN(CC4CCN(c5ccc6c(c5)C(=O)N(C5CCC(=O)NC5=O)C6=O)CC4)CC3)cc2F)CC(C)(C)O1 (stereo not shown) [Compound 102] | > 100 nM |
| CC1(C)CC(=C(c2ccc(OCCN3CCN(c4ccc5c(c4)C(=O)N(C4CCC(=O)NC4=O)C5=O)CC3)cc2)c2ccc3[nH]nc(F)c3c2)CC(C)(C)O1 (stereo not shown) [Compound 16] | > 100 nM |
| Cn1c(=O)n(C2CCC(=O)NC2=O)c2cccc(C#CCOC3CCN(c4ccc(C(=C5CC(C)(C)OC(C)(C)C5)c5ccc6[nH]nc(F)c6c5)cn4)CC3)c21 (stereo not shown) [Compound 100] | > 100 nM |
| Cn1c(=O)n(C2CCC(=O)NC2=O)c2cccc(C3CCN(CC4CCN(c5ccc(C(=C6CC(C)(C)OC(C)(C)C6)c6ccc7[nH]nc(F)c7c6)cn5)CC4)CC3)c21 (stereo not shown) [Compound 99] | 10 to 100 nM |
| CC1(C)CC(=C(c2ccc(N3CCC(N4CCN(c5ccc(NC6CCC(=O)NC6=O)cc5)CC4)CC3)cc2)c2ccc3[nH]nc(F)c3c2)CC(C)(C)O1 (stereo not shown) [Compound 86] | > 100 nM |

The remaining lines, values ahead:

| DC50 | Structure (SMILES) |
| --- | --- |
| < 10 nM | CC1(C)CC(=C(c2ccc(N3CCC(F)(CNC4CCN(c5ccc6c(c5)CN([C@@H]5CCC(=O)NC5=O)C6=O)CC4)CC3)nc2)c2ccc3[nH]nc(F)c3c2)CC(C)(C)O1 [Compound 142] |
| < 10 nM | CC1(C)CC(=C(c2ccc(N3CCC(CN4CCN(c5ccc(C(=O)N[C@H]6CCC(=O)NC6=O)cc5)CC4)CC3)nc2)c2ccc3[nH]nc(F)c3c2)CC(C)(C)O1 [Compound 126] |
| 10 to 100 nM | CC1(C)CC(=C(c2ccc(N3CCC(N4CCN(c5ccc6c(c5)CN([C@H]5CCC(=O)NC5=O)C6=O)CC4)CC3)cc2)c2ccc3[nH]nc(F)c3c2)CC(C)(C)O1 [Compound 135] |
| 10 to 100 nM | CC1(C)CC(=C(c2ccc(N3CCC(F)(CNC4CCN(c5ccc6c(c5)CN([C@H]5CCC(=O)NC5=O)C6=O)CC4)CC3)nc2)c2ccc3[nH]nc(F)c3c2)CC(C)(C)O1 [Compound 143] |
| > 100 nM | CC1(C)CC(=C(c2ccc(N3CCC4(CC(N5CCN(c6ccc7c(c6)CN(C6CCC(=O)NC6=O)C7=O)CC5)C4)C3)nc2)c2ccc3[nH]nc(F)c3c2)CC(C)(C)O1 (stereo not shown) [Compound 49] |
| 10 to 100 nM | CC1(C)CC(=C(c2ccc(N3CCC(CN4CCN(c5ccc6c(c5)CN(C5CCC(=O)NC5=O)C6=O)CC4)CC3)cc2)c2ccc3[nH]nc(F)c3c2)CC(C)(C)O1 (stereo not shown) [Compound 41] |
| > 100 nM | CC1(C)CC(=C(c2ccc(OC3CN(C4CCN(c5ccc6c(c5)C(=O)N(C5CCC(=O)NC5=O)C6=O)CC4)C3)nc2)c2ccc3[nH]nc(F)c3c2)CC(C)(C)O1 (stereo not shown) [Compound 18] |
| > 100 nM | CC1(C)CC(=C(c2ccc(N3CCC(N4CCN(c5ccc6c(c5)CN(C5CCC(=O)NC5=O)C6=O)CC4)CC3)cc2)c2ccc3[nH]ncc3c2)CC(C)(C)O1 (stereo not shown) [Compound 58] |
| < 10 nM | CC1(C)CC(=C(c2ccc(N3CC4(CCN(C5CCN(c6ccc7c(c6)CN([C@@H]6CCC(=O)NC6=O)C7=O)CC5)CC4)C3)nc2)c2ccc3[nH]nc(F)c3c2)CC(C)(C)O1 [Compound 138] |
| 10 to 100 nM | CC1(C)CC(=C(c2ccc(N3CCC(CN4CCN(c5ccc(C(=O)N[C@H]6CCC(=O)NC6=O)nc5)CC4)CC3)nc2)c2ccc3[nH]nc(F)c3c2)CC(C)(C)O1 [Compound 128] |
| < 10 nM | CC1(C)CC(=C(c2ccc(N3CCC(CN4CCC(N5Cc6cc7c(cc6C5)C(=O)N(C5CCC(=O)NC5=O)C7)CC4)CC3)nc2)c2ccc3[nH]nc(F)c3c2)CC(C)(C)O1 (stereo not shown) [Compound 69] |
| 10 to 100 nM | CC1(C)CC(=C(c2ccc3[nH]nc(F)c3c2)c2c(F)cc(N3CCC(CN4CCN(c5ccc6c(c5)C(=O)N(C5CCC(=O)NC5=O)C6=O)CC4)CC3)cc2F)CC(C)(C)O1 (stereo not shown) [Compound 12] |
| > 100 nM | CC1(C)CC(=C(c2ccc(N3CCN(C4CC5(CCN(c6ccc7c(c6)CN(C6CCC(=O)NC6=O)C7=O)C5)C4)CC3)nc2)c2ccc3[nH]nc(F)c3c2)CC(C)(C)O1 (stereo not shown) [Compound 53] |
| > 100 nM | CC1(C)CC(=C(c2ccc(N3CCC4(CN(C(=O)CN5Cc6cc7c(cc6C5)C(=O)N(C5CCC(=O)NC5=O)C7)C4)C3)nc2)c2ccc3[nH]nc(F)c3c2)CC(C)(C)O1 (stereo not shown) [Compound 72] |
